In one data set the test system is HIV (HTLV-IIIB strain). Briefly: MTT assay, MT-4 cells infected with HIV. Format: cell-based. The note with it: 5 days, inhibits 50% of cell damage caused by virus. As to the method:
The inhibitory effects of each anti-human immunodeficiency virus active substance against human immunodeficiency virus have been determined by MTT assay described below.
(1) Human T cell strain Molt-4 clone 8 persistently infected HIV (HTLV-IIIB strain) was cultivated in RPMI-1640 medium supplemented with 10% fatal bovine serum, and supernatant was filtered, measured RT activity, and stored at −80° C. On the other hand, each human anti-immunodeficiency virus active substance was diluted to fixed concentration in culture medium, they were plated to 96-well microtiter plate. Subsequently, 100 μL (3.5×10^4 cells) of MT-4 cell suspension was plated to 96-well microtiter plate, and then above mentioned supernatant containing HIV, which was diluted by culture medium, was added 50 μL (60 pfu (plaque forming unit.)) to 96-well microtiter plate.
(2) After cultivation at 37° C. for 5 days in CO2 incubator, into all well was added 30 μL per well 3-(4,5-[…])-2,5-diphenyltetrazolium bromide (MTT) 5 mg/mL) and PBS, and then incubated for 1 h.
In this time, alive cells reduced MTT and formazan was precipitated, therefore, 150 μL of cell supernatants were removed from all wells, and then 150 μL of lysate (10% triton X-100 and 0.4% (v/v) HCl-containing isopropanol) was added, and formazan was eluated on a plate shaker.

Another data set concerns the target HIV-1 integrase (Human immunodeficiency virus type 1 group M subtype B, UniProt P12497). Briefly: HIV-1 integrase inhibition assay (microtiter plate, substrate/target DNA).
The mark [1] stands for this setting: Human immunodeficiency virus 1, MT4, 120 h, read-out: EC50.

Like-named read-outs stand apart in the source and are kept apart here.

Experimental for HIV-1 integrase: Substrate DNA and target DNA, which sequences were indicated below, were synthesized by Amersham Pharmacia Biotech and dissolved in KTE buffer (composition: 100 mM KCl, 1 mM EDTA, 10 mM Tris-HCl (pH 7.6)) at concentration of 2 pmol/μL and 5 pmol/μL, respectively. The DNA solutions were annealed with each complement by slowly cooling after heating.
(2) Calculations of the percent inhibitions (the IC50 values of test compounds)
Streptavidin, obtained from Vector Laboratories, was dissolved in 0.1 M carbonate buffer (composition: 90 mM Na2CO3, 10 mM NaHCO3) at concentration of 40 μg/mL. After coating each well of microtiter plates (obtained from NUNC) with 50 μL of the above solution at 4° C. over night, each well was washed twice with PBS (composition: 13.7 mM NaCl, 0.27 mM KCl, 0.43 mM Na2HPO4, 0.14 mM KH2PO4) and blocked with 300 μL of 1% skim milk in PBS for 30 min. Additionally, each well was washed twice with PBS and added 50 μL of substrate DNA solution (2 pmol/μL). The microtiter plates were kept at room temperature for 30 min. Then, each well was washed twice with PBS and once with H2O.
Subsequently, in the each well prepared above were added 45 μL of the reaction buffer prepared from 12 μL of the buffer (composition: 150 mM MOPS (pH 7.2), 75 mM MnCl2, 50 mM 2-mercaptoethanol, 25% glycerol, 500 μg/mL bovine serum albumin-fraction V), 1 μL of target DNA (5 pmol/μL), and 32 μL of the distilled water. Additionally, 6 μL of either a test compound in DMSO or DMSO for positive control(PC) was mixed with the above reaction buffer, then 9 μL of an integrase solution (30 pmol) was added and mixed well. In the well of negative control (NC) was added 9 μL of the integrase dilution buffer (composition: 20 mM MOPS (pH7.2), 400 mM potassium glutamate, 1 mM EDTA, 0.1% NP-40, 20% glycerol, 1 mM DTT, 4M urea).
The microtiter plates were incubated at 30° C. for 1 hour. The reaction solution was removed and each well was washed twice with PBS. Subsequently, each well of the microtiter plates was filled with 100 μL of anti-digoxigenin antibody labeled with alkaline phosphatase (Sheep Fab fragment: obtained from Boehringer) and incubated at 30° C. for 1 hour. Then, each well was washed twice with 0.05% Tween20 in PBS and once with PBS. Next, 150 μL of the Alkaline phosphatase reaction buffer (composition: 10 mM p-Nitrophenylphosphate (obtained from Vector Laboratories), 5 mM MgCl2, 100 mM NaCl, 100 mM Tris-HCl (pH 9.5))was added in each well. […] The optical density (OD) at 405 nm of each well was measured and the percent inhibition was determined by the following expression.
The percent inhibition (%)=100[1-{(C abs.−NC abs.)/(PC abs.−NC abs.)}]
C abs.; the OD of the well of the compounds
NC abs.: the OD of the negative control (NC)
PC abs.: the OD of the positive control (PC)
IC50(μg/mL)=x-{(X-50)(x-y)/(X-Y)}

With “5-[(:3,5-dichlorophenyl)thio]-4-(1-methylethyl)-1-(4-pyridynylmethyl)-1H-imidazole-2-methanol carbamate [Capravirine]”, in the data set with HIV (HTLV-IIIB strain), the EC50 (usually the concentration that produces a half-maximal response) came to 0.0014 µg/mL.

For the compound `Cc1c(O)cccc1C(=O)N[C@@H](CSc1ccccc1)[C@H](O)CN1C[C@H]2CCCC[C@H]2C[C@H]1C(=O)NC(C)(C)C` (relative stereo) [Nelfinavir, [3S-[2(2S*,3S*),3α,4aβ,8aβ]]-N-(1,1-dimethylethyl)-decahydro-2-[2-hydroxy-3-[(3-hydroxy-2-methylbenzoyl)amino]-4-(phenylthio)butyl]-3-isoquinolinecarboxamide], the EC50 in the data set with HIV (HTLV-IIIB strain) (setting [1]) is 0.01 µg/mL.

With `CC(C)c1nc(CN(C)C(=O)N[C@H](C(=O)N[C@@H](Cc2ccccc2)C[C@H](O)[C@H](Cc2ccccc2)NC(=O)OCc2cncs2)C(C)C)cs1` (relative stereo) [Ritonavir, [5S-(5R*,8R*,10R*,11R*)]-10-hydroxy-2-methyl-5-(1-methylethyl)-1-[2-(1-methylethyl)-4-thiazolyl]-3,6-dioxo-8,10-bis(phenylmethyl)-2,4,7,12-tetraazatridecane-13-hydroxy acid 5-thiazolylmethyl ester], the EC50 in the data set with HIV (HTLV-IIIB strain) (setting [1]) came out at 0.026 µg/mL.

For `Nc1nc(NC2CC2)c2ncn([C@H]3C=C[C@@H](CO)C3)c2n1` [Abacavir], in the data set with HIV (HTLV-IIIB strain) (setting [1]), the EC50 was found to be 0.63 µg/mL.

On to `O=C(C=C(O)c1nn[nH]n1)c1ccc(Cc2ccc(F)cc2)o1` [Compound I-3, 1-[5-(4-Fluorobenzyl)furan-2-yl]-3-hydroxy-3-(2H-tetrazol-5-yl)propenone], for which the melting point (as a rule, the temperature of the solid-liquid transition) lay in the range of 121 to 123 °C. On HIV-1 integrase, it took 1270 nM to reach half-maximal inhibition (IC50).

`O=C(C=C(O)c1nn[nH]n1)c1occc1Cc1ccc(F)cc1` [Compound I-11, 1-[3-(4-Fluorobenzyl)furan-2-yl]-3-hydroxy-3-(2H-tetrazol-5-yl)propenone] yielded a melting point of 171 to 174 °C. Further, half-maximal inhibition on HIV-1 integrase (IC50) was put at 1340 nM.

Consider `O=C(C=C(O)c1nc[nH]n1)c1occc1Cc1ccc(F)cc1` [Compound I-12, 1-[3-(4-Fluorobenzyl)furan-2-yl]-3-hydroxy-3-(1H-1,2,4-triazol-3-yl)propenone], for which the melting point lay within 221 to 223 °C. Also, at HIV-1 integrase, half-maximal inhibition (IC50) required 1370 nM.

With `CCCn1cc(Cc2ccc(F)cc2)c(C(=O)C=C(O)c2nc[nH]n2)c1` [Compound I-17, 1-[[4-(4-Fluorobenzyl)-1-propyl]pyrrol-3-yl]-3-hydroxy-3-(1H-1,2,4-triazol-3-yl)propenone], the melting point lay in the range of 210 to 211 °C. Also, the IC50 – broadly, the concentration needed to halve the response being measured – against HIV-1 integrase was 4510 nM.

The compound `O=C(C=C(O)c1nc[nH]n1)c1c[nH]cc1Cc1ccc(F)cc1` [Compound I-19, 1-[4-(4-fluorobenzyl)pyrrol-3-yl]-3-hydroxy-3-(1H-1,2,4-triazol-3-yl)propenone] came in with a melting point of 210 to 213 °C. The compound also gave an IC50 against HIV-1 integrase of 2020 nM.

`O=C(C=C(O)c1nn[nH]n1)c1ccoc1Cc1ccc(F)cc1` [Compound I-20, 1-[2-(4-Fluorobenzyl)furan-3-yl]-3-hydroxy-3-(2H-tetrazol-5-yl)propenone] displayed a melting point of 150 to 153 °C. The compound further showed a half-inhibitory concentration (IC50) against HIV-1 integrase of 1020 nM.

Compound `O=C(C=C(O)c1nn[nH]n1)c1cn(S(=O)(=O)c2ccccc2)cc1CCc1ccccc1` [Compound I-21, 1-[[1-Benzenesulfonyl-4-(2-phenylethyl)]pyrrol-3-yl]-3-hydroxy-3-(2H-tetrazol-5-yl)propenone] gave a melting point of 178 to 181 °C. For the same compound, it took 1200 nM to reach half-maximal inhibition against HIV-1 integrase (IC50).

Take `O=C(C=C(O)c1nn[nH]n1)c1c[nH]cc1CCc1ccccc1` [Compound I-22, 3-Hydroxy-1-[(4-(2-phenylethyl))pyrrol-3-yl]-3-(2H-tetrazol-5-yl)propenone]: the melting point was 228 to 230 °C. The compound further gave an IC50 against HIV-1 integrase of 1910 nM.

As for `O=C(C=C(O)c1nc[nH]n1)c1ccoc1Cc1ccc(F)cc1` [Compound I-25, 1-[2-(4-Fluorobenzyl)furan-3-yl]-3-hydroxy-3-(1H-1,2,4-triazol-3-yl)propenone], the melting point lay within 144 to 147 °C. This compound also had an IC50 against HIV-1 integrase of 1530 nM.

`O=C(C=C(O)c1nc[nH]n1)c1cc(C(=O)O)n(Cc2ccccc2)c1` [Compound I-29, 1-[(1-Benzyl-5-carboxy)pyrrol-3-yl]-3-hydroxy-3-(1H-1,2,4-triazol-3-yl)propenone] gave a melting point of 264 to 265 °C. In addition, the IC50 against HIV-1 integrase is 2960 nM.

In turn, `O=C(C=C(O)c1ccccn1)c1ccc(Cc2ccc(F)cc2)o1` [Compound I-46, 1-[5-(4-Fluorobenzyl)furan-2-yl]-3-hydroxy-3-(pyridin-2-yl)propenone] returned a melting point of 84 to 85 °C. This compound had an IC50 against HIV-1 integrase of 1360 nM.

As to `O=C(C=C(O)c1ncccn1)c1ccc(Cc2ccc(F)cc2)o1` [Compound I-47, 1-[5-(4-Fluorobenzyl)furan-2-yl]-3-hydroxy-3-(pyrimidin-2-yl)propenone], the IC50 on HIV-1 integrase is 1080 nM.

Regarding `O=C(C=C(O)c1ccccn1)c1cnc(Cc2ccc(F)cc2)o1` [Compound I-50, 1-[2-(4-Fluorobenzyl)oxazol-5-yl]-3-hydroxy-3-(pyridin-2-yl)propenone], the melting point lay within 108 to 109 °C. In addition, the IC50 against HIV-1 integrase was 1230 nM.

`O=C(C=C(O)c1ncccn1)c1cnc(Cc2ccc(F)cc2)o1` [Compound I-51, 1-[2-(4-Fluorobenzyl)oxazol-5-yl]-3-hydroxy-3-(pyrimidin-2-yl)propenone] registered a melting point of 97 to 100 °C. The compound also had an IC50 against HIV-1 integrase of 1480 nM.

Turning to `CC(C)Nc1cccnc1N1CCN(C(=O)c2cc3cc(NS(C)(=O)=O)ccc3[nH]2)CC1` [Delavirdine, 1-[5-methanesulfonamideindolyl-2-carbonyl]-4-[3-(1-methylethylamino)-2-pyridyl]piperadine], in the data set with HIV (HTLV-IIIB strain) (setting [1]), the EC50 amounted to 0.012 µg/mL.

Regarding `O=c1[nH]cnc2c1ncn2C1CCC(CO)O1` (stereo not shown) [Didanosine, 2′,3′-dideoxyinosine], the EC50 in the data set with HIV (HTLV-IIIB strain) (setting [1]) worked out at 0.64 µg/mL.

With `O=C1Nc2ccc(Cl)cc2C(C#CC2CC2)(C(F)(F)F)O1` [Efavirenz, (S)-(−)-6-chloro-4-(chloropropylethynyl)-1,4-dihydro-4-(trifluoromethyl)-2H-3,1-benzoxazin-2-one], the EC50 in the data set with HIV (HTLV-IIIB strain) (setting [1]) came out at 0.00058 µg/mL.

Consider `CCOCn1c(Cc2ccccc2)c(C(C)C)c(=O)[nH]c1=O` [Emivirine, 6-benzyl-1-(ethoxymethyl)-5-isopropyluracil], for which the EC50 with HIV (HTLV-IIIB strain) (setting [1]) came to 0.0045 µg/mL.

In the case of `CC(C)(C)NC(=O)[C@@H]1CN(Cc2cccnc2)CCN1CC(O)C[C@@H](Cc1ccccc1)C(=O)N[C@H]1c2ccccc2C[C@H]1O` (stereo partly drawn) [Indinavir, [1(1S,2R),5(s)]-2,3,5-trideoxy-N-(2,3-dihydro-2-hydroxy-1H-inden-1-yl)-5-[2-{[(1,1-dimethylethyl)amino]carbonyl}-4-(3-pyridinylmethyl)-1-piperadinyl]-2-(phenylmethyl)-D-erythro-pentonamide], the concentration giving a half-maximal response (EC50) with HIV (HTLV-IIIB strain) (setting [1]) is 0.014 µg/mL.

Turning to `Cc1ccnc2c1NC(=O)c1cccnc1N2C1CC1` [Nevirapine], in the data set with HIV (HTLV-IIIB strain) (setting [1]), the EC50 is 0.02 µg/mL.

As to `CC(C)(C)NC(=O)[C@@H]1C[C@@H]2CCCC[C@@H]2CN1C[C@@H](O)[C@H](Cc1ccccc1)NC(=O)[C@H](CC(N)=O)NC(=O)c1ccc2ccccc2n1` [Saquinavir, N-tert-butyl-decahydro-2-[2(R)-hydroxy-4-phenyl-3(S)-{[N-(2-quinolylcarbony)-L-asparginyl]amino}butyl]-(4aS,8aS)-isoquinoline-3(S)-carboxamide], the EC50 in the data set on HIV (HTLV-IIIB strain) (setting [1]) was determined as 0.0037 µg/mL.

With `Nc1ccn([C@H]2CC[C@@H](CO)O2)c(=O)n1` [Zalcitabine, 2′,3′-dideoxycytidine], the EC50 in the data set with HIV (HTLV-IIIB strain) (setting [1]) is 0.017 µg/mL.

“(±)-α-[(2-acetyl-5-methylphenyl)amino]-2,6-dichlorobenzeneacetomide [Loviride]”: the EC50 in the data set with HIV (HTLV-IIIB strain) was determined as 0.011 µg/mL.
